According to US10308660B2, “Compounds and compositions for inhibiting the activity of SHP2” (Novartis AG, priority 2015, dated 2019):
pIC50: −log10 of the molar value.

Each molecule was assayed against SHP2 (Homo sapiens (Human), UniProt Q06124) (assay: SHP2 allosteric inhibition assay (DiFMUP prompt fluorescence)). Settings: 0.5 nM SHP2 activated with 0.5 μM peptide IRS1_pY1172(dPEG8)pY1222; substrate DiFMUP; 25° C.
Chain of SHP2 (Q06124 whole entry): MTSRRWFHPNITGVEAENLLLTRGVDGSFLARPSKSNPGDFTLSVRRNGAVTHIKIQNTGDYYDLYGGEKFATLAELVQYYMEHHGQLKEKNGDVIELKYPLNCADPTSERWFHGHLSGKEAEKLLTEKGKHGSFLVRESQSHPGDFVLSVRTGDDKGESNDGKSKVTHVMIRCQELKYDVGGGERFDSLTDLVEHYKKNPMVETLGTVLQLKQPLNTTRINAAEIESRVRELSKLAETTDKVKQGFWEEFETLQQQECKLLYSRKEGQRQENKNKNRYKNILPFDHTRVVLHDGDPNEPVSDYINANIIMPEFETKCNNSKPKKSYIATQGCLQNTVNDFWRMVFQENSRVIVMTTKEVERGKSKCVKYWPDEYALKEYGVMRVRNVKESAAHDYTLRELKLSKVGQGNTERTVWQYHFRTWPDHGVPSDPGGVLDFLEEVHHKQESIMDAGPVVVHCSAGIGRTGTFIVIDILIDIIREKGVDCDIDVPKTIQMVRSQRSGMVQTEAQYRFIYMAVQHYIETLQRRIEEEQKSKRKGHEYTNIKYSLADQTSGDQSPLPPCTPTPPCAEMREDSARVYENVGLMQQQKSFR
Format: biochemical
In the case of `C[C@@H]1CC2(CCN(c3nc(N)c(Sc4ccnc(N)c4Cl)c(=O)n3C)CC2)[C@@H](N)[C@H]1F` (single isomer, unassigned) [Example 37], the pIC50 was 7.33. For `C[C@@H]1CC2(CCN(c3nc(N)c(Sc4ccnc(N)c4Cl)c(=O)n3C)CC2)[C@H](N)[C@@H]1F` (single isomer, unassigned) [Example 38], the pIC50 was 7.52. Molecule `C[C@H]1CC2(CCN(c3nc(N)c(Sc4cccnc4C(F)(F)F)c(=O)n3C)CC2)[C@@H](N)[C@@H]1C(F)(F)F` (single isomer, unassigned) [Example 64] has a pIC50 of 6.07. With `C[C@H]1CC2(CCN(c3nc(N)c(Sc4cccnc4C(F)(F)F)c(=O)n3C)CC2)[C@H](N)[C@@H]1C(F)(F)F` (single isomer, unassigned) [Example 65] the pIC50 was 7.21. Molecule `C[C@@H]1OCC2(CCN(c3nc(N)c(Sc4ccnc(N)c4Cl)c(=O)n3C)CC2)[C@@H]1N` [Example 3] has a pIC50 of 7.36. In the case of `Cn1c(N2CCC(C)(CN)CC2)nc(N)c(Sc2ccnc(N)c2Cl)c1=O` [Example 4], the pIC50 was 7.28. In the case of `Cn1c(N2CCC(C)(CN)CC2)nc(N)c(Sc2cccc(Cl)c2)c1=O` [Example 5], the pIC50 was 5.65. For `Cn1c(N2CCC(C)(CN)CC2)nc(N)c(Sc2ccccc2Cl)c1=O` [Example 6], the pIC50 was 6.54. `Cn1c(N2CCC(C)(CN)CC2)nc(N)c(Sc2cccnc2C(F)(F)F)c1=O` [Example 7] gave a pIC50 of 6.96. `Cn1c(N2CCC(C)(CN)CC2)nc(N)c(Sc2cccc(N)c2Cl)c1=O` [Example 8] showed a pIC50 of 6.63. Molecule `COc1cccc(Sc2c(N)nc(N3CCC(C)(CN)CC3)n(C)c2=O)c1Cl` [Example 9] has a pIC50 of 7.33. `Cn1c(N2CCC(C)(CN)CC2)nc(N)c(Sc2cccc(C#N)c2)c1=O` [Example 10] was tested, and the pIC50 was 5.25. Work on `Cn1c(N2CCC(C)(CN)CC2)nc(N)c(Sc2cccc(OC(F)(F)F)c2)c1=O` [Example 11] yielded a pIC50 of 6.36. `Cn1c(N2CCC3(CCC[C@H]3N)CC2)nc(N)c(Sc2cccc(Cl)c2Cl)c1=O` [Example 13] gave a pIC50 of 7.41. Molecule `Cn1c(N2CCC3(CCC[C@H]3N)CC2)nc(N)c(Sc2cccnc2C(F)(F)F)c1=O` [Example 14] has a pIC50 of 7.01. `Cn1c(N2CCC3(CC2)COC[C@H]3N)nc(N)c(Sc2ccnc(N)c2Cl)c1=O` [Example 16] gave a pIC50 of 7.66. Molecule `C[C@@H]1OCC2(CCN(c3nc(N)c(Sc4cc(N)nc(Cl)c4Cl)c(=O)n3C)CC2)[C@@H]1N` [Example 19] has a pIC50 of 7.85. `COc1cccc(Sc2c(N)nc(N3CCC4(CC3)CO[C@@H](C)[C@H]4N)n(C)c2=O)c1Cl` [Example 20] gave a pIC50 of 7.77. In the case of `C[C@H]1C[C@@H](N)C2(CCN(c3nc(N)c(Sc4ccnc(N)c4Cl)c(=O)n3C)CC2)C1` [Example 21], the pIC50 was 7.55. With `C[C@@H]1OCC2(CCN(c3nc(N)c(Sc4cccnc4OC(F)(F)F)c(=O)n3C)CC2)[C@@H]1N` [Example 22] the pIC50 was 6.97. Molecule `COc1nccc(Sc2c(N)nc(N3CCC4(CC3)CO[C@@H](C)[C@H]4N)n(C)c2=O)c1Cl` [Example 23] has a pIC50 of 7.64. Work on `Cn1c(N2CCC(C)(CN)CC2)nc(N)c(Sc2cccc3ncccc23)c1=O` [Example 24] yielded a pIC50 of 6.52. Work on `C[C@@H]1OCC2(CCN(c3nc(N)c(Sc4cccc(N)c4Cl)c(=O)n3C)CC2)[C@@H]1N` [Example 25] yielded a pIC50 of 7.42. `C[C@@H]1OCC2(CCN(c3nc(N)c(Sc4ccccc4)c(=O)n3C)CC2)[C@@H]1N` [Example 26] showed a pIC50 of 7.09. `C[C@@H]1OCC2(CCN(c3nc(N)c(Sc4ccccc4Cl)c(=O)n3C)CC2)[C@@H]1N` [Example 27] showed a pIC50 of 7.60. With `C[C@@H]1OCC2(CCN(c3nc(N)c(Sc4ccnc(N5CCCC5)c4Cl)c(=O)n3C)CC2)[C@@H]1N` [Example 28] the pIC50 was 7.55. In the case of `CCOc1nccc(Sc2c(N)nc(N3CCC4(CC3)CO[C@@H](C)[C@H]4N)n(C)c2=O)c1Cl` [Example 30], the pIC50 was 7.49. In the case of `C[C@@H]1OCC2(CCN(c3nc(N)c(Sc4cccc(N)c4C(F)(F)F)c(=O)n3C)CC2)[C@@H]1N` [Example 31], the pIC50 was 7.70. Work on `C[C@@H]1CC2(CCN(c3nc(N)c(Sc4cccnc4C(F)(F)F)c(=O)n3C)CC2)[C@H](N)C1(F)F` [Example 33] yielded a pIC50 of 7.40. `C[C@@H]1CC2(CCN(c3nc(N)c(Sc4ccnc(N)c4Cl)c(=O)n3C)CC2)[C@H](N)C1(F)F` [Example 34] was tested, and the pIC50 was 7.24. For `Cn1c(N2CCC3(CC2)C[C@H](F)C[C@H]3N)nc(N)c(Sc2cccnc2C(F)(F)F)c1=O` [Example 35], the pIC50 was 7.62. `Cn1c(N2CCC3(CC2)C[C@H](F)C[C@H]3N)nc(N)c(Sc2ccnc(N)c2Cl)c1=O` [Example 36] was tested, and the pIC50 was 7.16. `Cn1c(N2CCC3(CC2)CC(F)(F)C[C@H]3N)nc(N)c(Sc2ccnc(N)c2Cl)c1=O` [Example 42] showed a pIC50 of 7.85. Molecule `Cn1c(N2CCC3(CC2)CC(F)(F)C[C@H]3N)nc(N)c(Sc2cccnc2C(F)(F)F)c1=O` [Example 43] has a pIC50 of 7.74. With `Cn1c(N2CCC(C)(CN)CC2)nc(N)c(Sc2ccccc2Br)c1=O` [Example 45] the pIC50 was 6.86. For `Cn1c(N2CCC(C)(CN)CC2)nc(N)c(Sc2ccccc2OC(F)(F)F)c1=O` [Example 46], the pIC50 was 7.05. `COc1ccccc1Sc1c(N)nc(N2CCC(C)(CN)CC2)n(C)c1=O` [Example 47] showed a pIC50 of 6.69. `Cn1c(N2CCC(C)(CN)CC2)nc(N)c(Sc2ccccc2[N+](=O)[O-])c1=O` [Example 48] showed a pIC50 of 6.52. With `Cn1c(N2CCC(C)(CN)CC2)nc(N)c(Sc2ccccc2C(F)(F)F)c1=O` [Example 49] the pIC50 was 7.13. With `Cn1c(N2CCC(C)(CN)CC2)nc(N)c(Sc2cccc3c2OC(F)(F)O3)c1=O` [Example 50] the pIC50 was 6.82. With `Cn1c(N2CCC(C)(CN)CC2)nc(N)c(Sc2ccccc2C#N)c1=O` [Example 51] the pIC50 was 6.41. `Cn1c(N2CCC(C)(CN)CC2)nc(N)c(Sc2ccccc2O)c1=O` [Example 52] showed a pIC50 of 6.14. For `Cn1c(N2CCC(C)(CN)CC2)nc(N)c(Sc2ccc(N)cc2Cl)c1=O` [Example 53], the pIC50 was 6.22. With `Cc1ccccc1Sc1c(N)nc(N2CCC(C)(CN)CC2)n(C)c1=O` [Example 54] the pIC50 was 6.70. `Cn1c(N2CCC(C)(CN)CC2)nc(N)c(Sc2cccc3ccccc23)c1=O` [Example 55] gave a pIC50 of 7.35. `Cn1c(N2CCC(C)(CN)CC2)nc(N)c(Sc2ccc(Cl)cc2Cl)c1=O` [Example 56] showed a pIC50 of 6.77. Molecule `Cn1c(N2CCC(C)(CN)CC2)nc(N)c(Sc2cccc3cccnc23)c1=O` [Example 57] has a pIC50 of 6.55. Molecule `C[C@@H]1OCC2(CCN(c3nc(N)c(Sc4ccnc(C(F)(F)F)c4Cl)c(=O)n3C)CC2)[C@@H]1N` [Example 59] has a pIC50 of 7.37. `C[C@H]1C[C@@H](N)C2(CCN(c3nc(N)c(Sc4cccc(N)c4Cl)c(=O)n3C)CC2)C1` [Example 60] showed a pIC50 of 7.80. For `C[C@@H]1OCC2(CCN(c3nc(N)c(Sc4ccncc4C(F)(F)F)c(=O)n3C)CC2)[C@@H]1N` [Example 61], the pIC50 was 7.03. `C[C@H]1C[C@@H](N)C2(CCN(c3nc(N)c(Sc4ccnc(N5CCCC5)c4Cl)c(=O)n3C)CC2)C1` [Example 62] showed a pIC50 of 7.60. Work on `Cn1c(N2CCC3(CC2)COC[C@H]3N)nc(N)c(Sc2cccnc2C(F)(F)F)c1=O` [Example 63] yielded a pIC50 of 7.47. `C[C@H]1C[C@@H](N)C2(CCN(c3nc(N)c(Sc4cccnc4Cl)c(=O)n3C)CC2)C1` [Example 66] showed a pIC50 of 7.70. Work on `C[C@H]1C[C@@H](N)C2(CCN(c3nc(N)c(Sc4cc(N)cnc4Cl)c(=O)n3C)CC2)C1` [Example 68] yielded a pIC50 of 8.00. `C[C@H]1C[C@@H](N)C2(CCN(c3nc(N)c(Sc4cc(N)ccc4Cl)c(=O)n3C)CC2)C1` [Example 69] was tested, and the pIC50 was 8.00. In the case of `C[C@H]1C[C@@H](N)C2(CCN(c3nc(N)c(Sc4cc(N)nc(Cl)c4Cl)c(=O)n3C)CC2)C1` [Example 70], the pIC50 was 7.96. Molecule `Cn1c(N2CCC3(CC2)COC[C@H]3N)nc(N)c(Sc2cccc(Cl)c2Cl)c1=O` [Example 72] has a pIC50 of 7.48. With `C[C@H]1C[C@@H](N)C2(CCN(c3nc(N)c(Sc4ccnc(Cl)c4C(F)(F)F)c(=O)n3C)CC2)C1` [Example 73] the pIC50 was 7.15. `C[C@H]1C[C@@H](N)C2(CCN(c3nc(N)c(Sc4ccncc4C(F)(F)F)c(=O)n3C)CC2)C1` [Example 75] gave a pIC50 of 7.74. In the case of `C[C@H]1C[C@@H](N)C2(CCN(c3nc(N)c(Sc4ccncc4Cl)c(=O)n3C)CC2)C1` [Example 76], the pIC50 was 7.57. Work on `COc1nccc(Sc2c(N)nc(N3CCC4(CC3)C[C@@H](C)C[C@H]4N)n(C)c2=O)c1Cl` [Example 77] yielded a pIC50 of 7.41. `C[C@@H]1OCC2(CCN(c3nc(N)c(Sc4cccc5c4OCO5)c(=O)n3C)CC2)[C@@H]1N` [Example 78] gave a pIC50 of 7.92. `COc1ccc(Sc2c(N)nc(N3CCC4(CC3)CO[C@@H](C)[C@H]4N)n(C)c2=O)cc1F` [Example 79] was tested, and the pIC50 was 6.43. `Cc1ncccc1Sc1c(N)nc(N2CCC3(CC2)CO[C@@H](C)[C@H]3N)n(C)c1=O` [Example 80] was tested, and the pIC50 was 7.17. `C[C@@H]1OCC2(CCN(c3nc(N)c(Sc4ccc(F)cc4Cl)c(=O)n3C)CC2)[C@@H]1N` [Example 81] was tested, and the pIC50 was 7.82. For `Cn1c(N2CCC3(CC2)CC(F)(F)C[C@H]3N)nc(N)c(Sc2ccc(F)cc2Cl)c1=O` [Example 82], the pIC50 was 7.60. With `Cn1c(N2CCC3(CC2)C[C@H](C(F)(F)F)C[C@H]3N)nc(N)c(Sc2cccnc2C(F)(F)F)c1=O` [Example 83] the pIC50 was 7.25. `Cn1c(N2CCC3(CC2)C[C@@H](C(F)(F)F)C[C@H]3N)nc(N)c(Sc2cccnc2C(F)(F)F)c1=O` [Example 84] showed a pIC50 of 7.14. `Cn1c(N2CCC3(CC2)CC(F)(F)C[C@H]3N)nc(N)c(Sc2ccccc2Cl)c1=O` [Example 85] gave a pIC50 of 7.11. `CC[C@@H]1OCC2(CCN(c3nc(N)c(Sc4ccnc(C)c4Cl)c(=O)n3C)CC2)[C@@H]1N` [Example 86] was tested, and the pIC50 was 7.66. Work on `CC[C@@H]1OCC2(CCN(c3nc(N)c(Sc4cccnc4C(F)(F)F)c(=O)n3C)CC2)[C@@H]1N` [Example 87] yielded a pIC50 of 7.68. In the case of `C[C@@H]1OCC2(CCN(c3cc(N)c(Sc4cccnc4C(F)(F)F)c(=O)[nH]3)CC2)[C@@H]1N` [Example 88, 4-amino-6-((3S,4S)-4-amino-3-methyl-2-oxa-8-azaspiro[4.5]decan-8-yl)-3-((2-(trifluoromethyl)pyridin-3-yl)thio)pyridin-2(1H)-one], the pIC50 was 7.38. In the case of `CC1(CN)CCN(c2nc(N)c(Sc3cccnc3C(F)(F)F)c(=O)[nH]2)CC1` [Example 90, 6-amino-2-(4-(aminomethyl)-4-methylpiperidin-1-yl)-5-((2-(trifluoromethyl)pyridin-3-yl)thio)pyrimidin-4(3H)-one], the pIC50 was 7.18.
